The results in this text go back to BindingDB's records for patent US11241438 (Incyte Corporation, 2022).

The target in this experiment is T1, Tyrosine-protein kinase receptor TYRO3 (Homo sapiens, UniProt Q06418).
T1 sequence (Q06418 whole entry): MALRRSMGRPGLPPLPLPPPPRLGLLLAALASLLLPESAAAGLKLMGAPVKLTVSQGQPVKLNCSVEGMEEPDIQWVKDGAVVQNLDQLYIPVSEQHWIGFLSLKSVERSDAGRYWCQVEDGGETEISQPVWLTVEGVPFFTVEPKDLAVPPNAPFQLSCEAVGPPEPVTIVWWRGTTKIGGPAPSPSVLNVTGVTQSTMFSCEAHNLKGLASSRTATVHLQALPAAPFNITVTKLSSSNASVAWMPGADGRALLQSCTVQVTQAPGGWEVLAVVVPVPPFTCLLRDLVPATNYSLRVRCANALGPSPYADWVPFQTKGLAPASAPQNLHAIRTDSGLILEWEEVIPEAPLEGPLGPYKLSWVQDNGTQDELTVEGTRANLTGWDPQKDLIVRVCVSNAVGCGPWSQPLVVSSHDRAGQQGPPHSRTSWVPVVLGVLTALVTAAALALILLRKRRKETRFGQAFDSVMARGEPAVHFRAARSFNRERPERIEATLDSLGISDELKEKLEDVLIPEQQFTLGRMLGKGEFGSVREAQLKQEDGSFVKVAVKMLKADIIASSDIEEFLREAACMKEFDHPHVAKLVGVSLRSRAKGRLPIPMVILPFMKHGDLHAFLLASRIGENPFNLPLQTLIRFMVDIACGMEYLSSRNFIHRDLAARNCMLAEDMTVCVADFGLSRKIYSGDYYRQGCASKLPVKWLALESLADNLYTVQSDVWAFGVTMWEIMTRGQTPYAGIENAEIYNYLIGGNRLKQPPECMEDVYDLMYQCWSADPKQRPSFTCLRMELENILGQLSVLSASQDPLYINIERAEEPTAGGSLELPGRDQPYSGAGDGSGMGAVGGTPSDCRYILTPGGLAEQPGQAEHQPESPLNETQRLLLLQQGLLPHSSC
As to the kind of experiment: TAM Enzymatic Assay. The protocol: The kinase assay buffer contained 50 mM HEPES, pH7.5, 10 mM MgCl2, 1 mM EGTA, 0.01% NP-40 and 2 mM DTT. 0.1 ul test compounds dissolved in DMSO were transferred from compound plates to white 384-well assay plates (Greiner […] plates). The final concentration of DMSO was 1.25%. Enzyme solutions of 5.1 nM phosphor-Axl, or 0.0625 nM c-Mer (Carna Biosciences, 08-108), or 0.366 nM Tyro3 (Life Technologies, PR7480A) were prepared in assay buffer. A 1 mM stock solution of peptide substrate Biotin-[…]-amide SEQ ID NO: 1 (Quality Controlled Biochemicals, MA) dissolved in DMSO was diluted to 1 uM in assay buffer containing 2000 uM ATP. 4 ul enzyme solution (or assay buffer for the enzyme blank) was added to the appropriate wells in each plate, and then 4 ul/well substrate solution was added to initiate the reaction. The plate was protected from light and incubated at room temperature for 60 min. […] The plate was incubated for 1 h at room temperature, and HTRF (homogenous time resolved fluorescence) signal was measured on a PHERAstar FS plate reader (BMG labtech). Percentage of inhibition was calculated for each concentration and IC50 value was generated from curve fitting with GraphPad Prism software.

Regarding `CC(C)C(=O)N1CCC(c2cc(-c3ccc(NC(=O)c4cn(C(C)C)c(=O)n(-c5ccccn5)c4=O)cc3)c3c(N)ncnn23)CC1` [US11241438, Compound I], the 50% inhibitory concentration (IC50) was 55 nM.
